# In patent publication US20260317356A1, “SMALL MOLECULE MODULATORS OF OGG1” (AZKARRA THERAPEUTICS, INC., priority 2023, published 2026):
# Target: hOGG1 (Homo sapiens, UniProt O15527)
# Test: Biochemical fluorescence assay to measure enzymatic activity of hOGG1 (OGG1/APEX IC50)
# Parameters: Protein His-hOGG1 (12-323) was prepared; His (N); host or cells: E. coli
# Conditions: 1 nM OGG1+2 nM APEX+6 nM dsDNA (8-oxo-dG substrate); pH 7.5; RT 40 min; read-out: OGG1/APEX IC50
# Method: Biological Example 1: Biochemical Assay to Measure Enzymatic Activity of hOGG1 (OGG1/APEX IC50)
# The reported fluorescence-based assay (Donley et al ACS Chem Biol 2015; 10 (10), 2334-2343) was modified to include hAPE1/APEX1 protein. The oligonucleotide substrate with 8-oxo-dG lesion at X was prepared (LGC Biosearch, Petaluma, CA):
# Protein His-hOGG1 (12-323) was prepared by Chempartner Corporation via E. coliexpression and purification by Ni-NTA and S200 column to afford 95% purity by SDS-PAGE and SEC-HPLC analysis and hAPE1/APEX1 was purchased (SinoBiological). The assay was run in 384-well plates following the general procedure: (1) compound dilution; (2) addition of hOGG1/APEX1 to compound wells; (3) addition of DNA substrate to compound wells; (4) read Ex520/Em600 (TAMRA) fluorescence signal after 40 minutes; (5) calculate % inhibition/compound concentration; (6) calculate dose-response curve and IC50 value.
# • (1) 20 mM of compound solution was prepared in DMSO; • (2) Compounds were diluted to 10 mM in DMSO in ECHO Source plate (Labcyte PP-0200), by mixing […] DMSO; • (3) 4× dilution of compounds, for 10 points, by mixing […] DMSO; and • (4) Dispensed 150 nL compounds to assay plate (Corning 3573) in column 3-22. Dispensed 150 nL DMSO to Min and Max control wells in column 1-2 and column 23-24.
# • (1) Assay buffer was prepared (20 mM Tris pH 7.5, 100 mM KCl, 0.1% BSA, 0.01% Tween). • (2) […] buffer was added to Min control wells (Column 1-2). • (3) Enzyme was diluted to 2× with buffer (2 nM OGG1+4 nM APEX1). Dispensed […] (except Min control wells). Shake at 500 rpm at RT for 20 min. • (4) DNA substrate diluted to 2× with buffer (12 nM). Dispensed […]. Final concentration: 1 nM OGG1+2 nM APEX+6 nM dsDNA. Shake at RT for 40 min. • (5) Ex520/Em600 (TAMRA) was read.
# • (1) Calculated respective mean of Max and Min control wells. • (2) Converted data to percentage inhibition.
# Inhibition (%)=(Max mean−value)/(Max mean−Min mean)×100% • (3) Calculated sigmoidal curve (3-parameter) and IC50 (using GraphPad Prism software).
# hOGG1, sequence (O15527 12-323): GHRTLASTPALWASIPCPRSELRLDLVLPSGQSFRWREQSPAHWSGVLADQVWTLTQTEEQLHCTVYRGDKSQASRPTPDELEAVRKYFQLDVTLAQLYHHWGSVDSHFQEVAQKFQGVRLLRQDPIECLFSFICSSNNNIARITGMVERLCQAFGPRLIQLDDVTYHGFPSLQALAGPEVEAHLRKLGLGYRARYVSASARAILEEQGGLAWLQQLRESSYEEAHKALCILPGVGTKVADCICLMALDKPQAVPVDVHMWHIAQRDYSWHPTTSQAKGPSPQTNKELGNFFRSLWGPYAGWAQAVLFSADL
row,IC50 [nM],SMILES
1,> 10000,"Cc1ccc(NC(=O)[C@H]2CC[C@@H](N3Cc4c(C)cccc4C3=O)CC2)cc1C1COC1 [Example 125, (1s,4s)-4-(4-Methyl-1-oxoisoindolin-2-yl)-N-(4-methyl-3-(oxetan-3-yl)phenyl)cyclohexane-1-carboxamide]"
2,100 to 1000,"COc1cc(NC(=O)[C@H]2CC[C@@H](N3Cc4c(Br)cc(N)cc4C3=O)CC2)ccc1C [Example 165, (1s,4s)-4-(6-Amino-4-bromo-1-oxoisoindolin-2-yl)-N-(3-methoxy-4-methylphenyl)cyclohexanecarboxamide]"
3,1000 to 10000,"Cc1cccc2c1CN([C@H]1CC[C@@H](C(=O)Nc3ccc4nc[nH]c4c3)CC1)C2=O [Example 272, (1s,4s)-N-(1H-benzo[d]imidazol-6-yl)-4-(4-methyl-1-oxoisoindolin-2-yl)cyclohexanecarboxamide]"
4,1000 to 10000,"COc1cc(NC(=O)[C@H]2CC[C@@H](N3Cc4c(ccc(OCCN5CCOCC5)c4C)NC3=O)CC2)ccc1C [Example 50, (1s,4s)-N-(3-Methoxy-4-methylphenyl)-4-(5-methyl-6-(2-morpholinoethoxy)-2-oxo-1,2-dihydroquinazolin-3(4H)-yl)cyclohexanecarboxamide]"
5,> 10000,"COc1cc(NC(=O)[C@@H]2[C@@H]3C[C@H](N4Cc5c(Br)cccc5C4=O)C[C@@H]32)ccc1C (single isomer, unassigned) [Example 267]"
6,< 100,"COc1cc(NC(=O)[C@H]2CC[C@@H](N3Cc4c(C)cnc(C#N)c4NC3=O)CC2)ccc1C [Example 22, (1s,4s)-4-(8-Cyano-5-methyl-2-oxo-1,2-dihydropyrido[3,4-d]pyrimidin-3(4H)-yl)-N-(3-methoxy-4-methylphenyl)cyclohexanecarboxamide]"
7,100 to 1000,"COc1cc(NC(=O)[C@H]2CC[C@@H](N3Cc4c(Br)cc(NC(=O)CN(C)C)cc4C3=O)CC2)ccc1C [Example 202, (1s,4s)-4-(4-bromo-6-(2-(dimethylamino)acetamido)-1-oxoisoindolin-2-yl)-N-(3-methoxy-4-methylphenyl)cyclohexanecarboxamide]"
8,< 100,"COc1cc(NC(=O)[C@H]2CC[C@@H](N3Cc4c(Br)cc(NC(=O)CCN(C)C)cc4C3=O)CC2)ccc1C [Example 204, (1s,4s)-4-(4-Bromo-6-(3-(dimethylamino)propanamido)-1-oxoisoindolin-2-yl)-N-(3-methoxy-4-methylphenyl)cyclohexanecarboxamide]"
9,100 to 1000,"COc1cc(NC(=O)[C@H]2CC[C@@H](N3Cc4c(cccc4C(F)(F)F)NC3=O)CC2)ccc1C [Example 70, (1s,4s)-N-(3-methoxy-4-methylphenyl)-4-(2-oxo-5-(trifluoromethyl)-1,2-dihydroquinazolin-3(4H)-yl)cyclohexanecarboxamide]"
10,1000 to 10000,"COc1cc(NC(=O)[C@@H]2CC[C@@H](N3Cc4c(C)cc(Br)cc4NC3=O)C2)ccc1C [Example 36, (1R,3R)-3-(7-Bromo-5-methyl-2-oxo-1,2-dihydroquinazolin-3(4H)-yl)-N-(3-methoxy-4-methylphenyl)cyclopentanecarboxamide]"
11,100 to 1000,"COc1cc(NC(=O)[C@H]2CC[C@@H](N3Cc4c(Br)ccc(Cl)c4C3=O)CC2)ccc1C [Example 142, (1s,4s)-4-(4-Bromo-7-chloro-1-oxoisoindolin-2-yl)-N-(3-methoxy-4-methylphenyl)cyclohexanecarboxamide]"
12,100 to 1000,"Cc1cccc2c1CN([C@H]1CC[C@@H](C(=O)Nc3ccc(Cl)cc3)CC1)C2=O [Example 216, (1s,4s)-N-(4-Chlorophenyl)-4-(4-methyl-1-oxoisoindolin-2-yl)cyclohexanecarboxamide]"
13,100 to 1000,"COc1cc(NC(=O)[C@H]2CC[C@@H](N3Cc4c(Br)cccc4NC3=O)CC2)ccc1C [Example 66, (1s,4s)-4-(5-bromo-2-oxo-1,2-dihydroquinazolin-3(4H)-yl)-N-(3-methoxy-4-methylphenyl)cyclohexanecarboxamide]"
14,> 10000,"Cc1cnc(NC(=O)[C@H]2CC[C@@H](N3Cc4c(C)cccc4C3=O)CC2)s1 [Example 235, (1s,4s)-4-(4-Methyl-1-oxoisoindolin-2-yl)-N-(5-methylthiazol-2-yl)cyclohexanecarboxamide]"
15,< 100,"COc1cc(NC(=O)[C@H]2CC[C@@H](N3Cc4c(C)ccc(CO)c4NC3=O)CC2)ccc1C [Example 54, (1s,4s)-4-(8-(Hydroxymethyl)-5-methyl-2-oxo-1,2-dihydroquinazolin-3(4H)-yl)-N-(3-methoxy-4-methylphenyl)cyclohexanecarboxamide]"
16,< 100,"COc1cc(NC(=O)[C@H]2CC[C@@H](N3Cc4c(Br)cc(NCCN(C)C)cc4C3=O)CC2)ccc1C [Example 198, (1s,4s)-4-(4-Bromo-6-(2-(dimethylamino)ethylamino)-1-oxoisoindolin-2-yl)-N-(3-methoxy-4-methylphenyl)cyclohexanecarboxamide]"
17,1000 to 10000,"COc1cc(NC(=O)[C@H]2CC[C@@H](N3Cc4c(ccc(CN)c4C)NC3=O)CC2)ccc1C [Example 57, (1s,4s)-4-(6-(Aminomethyl)-5-methyl-2-oxo-1,2-dihydroquinazolin-3(4H)-yl)-N-(3-methoxy-4-methylphenyl)cyclohexanecarboxamide]"
18,1000 to 10000,"Cn1c(NC(=O)[C@H]2CC[C@@H](N3Cc4c(Br)cccc4C3=O)CC2)nc2ccccc21 [Example 190, (1s,4s)-4-(4-Bromo-1-oxoisoindolin-2-yl)-N-(1-methyl-1H-benzo[d]imidazol-2-yl)cyclohexanecarboxamide]"
19,100 to 1000,"COc1cc(NC(=O)[C@H]2CC[C@@H](N3Cc4c(Cl)cccc4NC3=O)CC2)ccc1C [Example 68, (1s,4s)-4-(5-chloro-2-oxo-1,2-dihydroquinazolin-3(4H)-yl)-N-(3-methoxy-4-methylphenyl)cyclohexanecarboxamide]"
20,1000 to 10000,"Cc1cccc2c1CN([C@H]1CC[C@@H](C(=O)Nc3ccc4cnn(C)c4c3)CC1)C2=O [Example 215, (1s,4s)-4-(4-Methyl-1-oxoisoindolin-2-yl)-N-(1-methyl-1H-indazol-6-yl)cyclohexanecarboxamide]"
21,< 100,"COc1cc(NC(=O)[C@H]2CC[C@@H](N3Cc4c(C)ccc(OCCN(C)C)c4NC3=O)CC2)ccc1C [Example 21, (1s,4s)-4-(8-(2-(Dimethylamino)ethoxy)-5-methyl-2-oxo-1,2-dihydroquinazolin-3(4H)-yl)-N-(3-methoxy-4-methylphenyl)cyclohexanecarboxamide]"
22,100 to 1000,"COc1ccc(NC(=O)[C@H]2CC[C@@H](N3Cc4c(C)cccc4NC3=O)CC2)cc1F [Example 89, (1s,4s)-N-(3-fluoro-4-methoxyphenyl)-4-(5-methyl-2-oxo-1,2-dihydroquinazolin-3(4H)-yl)cyclohexanecarboxamide]"
23,< 100,"COc1cc(NC(=O)[C@H]2CC[C@@H](N3Cc4c(C)cncc4NC3=O)CC2)ccc1C [Example 37, (1s,4s)-N-(3-Methoxy-4-methylphenyl)-4-(5-methyl-2-oxo-1,2-dihydropyrido[3,4-d]pyrimidin-3(4H)-yl)cyclohexanecarboxamide]"
24,1000 to 10000,"COc1cc(NC(=O)[C@H]2CC[C@@H](N3Cc4c(CF)cccc4C3=O)CC2)ccc1C [Example 166, (1s,4s)-4-(4-(Fluoromethyl)-1-oxoisoindolin-2-yl)-N-(3-methoxy-4-methylphenyl)cyclohexanecarboxamide]"
25,1000 to 10000,"COc1cc(NC(=O)[C@H]2CC[C@H](N3Cc4c(C)cc(C5COC5)cc4NC3=O)CC2)ccc1C [Example 110, (1r,4r)-N-(3-methoxy-4-methylphenyl)-4-(5-methyl-7-(oxetan-3-yl)-2-oxo-1,2-dihydroquinazolin-3(4H)-yl)cyclohexanecarboxamide]"
26,> 10000,"COc1cc(NC(=O)C(C)N2CC(N3Cc4c(Br)cccc4C3=O)C2)ccc1C (stereo not drawn) [Example 188, 2-(3-(4-Bromo-1-oxoisoindolin-2-yl)azetidin-1-yl)-N-(3-methoxy-4-methylphenyl)propanamide]"
27,> 10000,"CCOC(=O)c1cccc2c1CN([C@H]1CC[C@@H](C(=O)Nc3ccc(C)c(OC)c3)CC1)C2=O [Example 169, Ethyl 2-((1s,4s)-4-(3-methoxy-4-methylphenylcarbamoyl)cyclohexyl)-1-oxoisoindoline-4-carboxylate]"
